In US20240245793A1, “PSD-95 INHIBITORS AND USES THEREOF” (priority 2021, published 2024):
Read-outs that look alike come from different tables or passages of the source. Values belong to the compound of their own block, whether it stands above or below them.

Columns and labels:
plasmin = target: T1, plasmin (Homo sapiens, UniProt P00747); test: In vitro plasmin stability assay; type: in vitro ADME
T1 construct: Tissue plasminogen factor (tPA), which generates plasmin from plasminogen
Procedure: (§1) At selected time points during the incubation, the ligands were extracted from 80 μL of assay matrix by treatment with 80 μL of 50% acetonitrile (ACN). The samples were filtered and analysed by UPLC to determine the amount of ligand remaining. LC-MS analysis was performed to confirm ligand integrity and identify cleavage sites.

[1] = In vitro plasma stability in undiluted pooled human plasma; type: in vitro ADME; conditions: for T1/2: 100 μM ligand, 37° C., mean ± SEM (Table 13, FIG. 10); for half-life at 100 μM: human
Procedure: as §1, with “the” for “80 μL of”, “adding assay matrix to 6M Urea followed by precipitation using 20% TCA in acetone. After overnight incubation, the” for “treatment with 80 μL of 50% acetonitrile (ACN). The”

PDZ1-2 of PSD-95 = PDZ1-2 of PSD-95 (Homo sapiens, UniProt P78352); test: Fluorescence polarization (FP) competition assay, affinity to PDZ1-2 of PSD-95; type: binding; conditions: mean ± SEM
PDZ1-2 of PSD-95, sequence (P78352 61-249 limits assumed): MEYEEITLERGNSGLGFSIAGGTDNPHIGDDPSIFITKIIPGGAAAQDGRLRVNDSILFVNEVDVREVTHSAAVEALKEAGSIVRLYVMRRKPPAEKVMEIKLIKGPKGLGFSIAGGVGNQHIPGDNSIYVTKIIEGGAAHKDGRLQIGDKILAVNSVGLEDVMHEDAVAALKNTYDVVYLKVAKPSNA
Procedure: First, a saturation binding curve was obtained to determine KD values for the interaction between a fluorescent dimeric probe and PDZ1-2 of PSD-95. Increasing concentrations of PDZ1-2 (0.015-30 nM) were added to a constant concentration of the probe (0.5 nM). The fluorescence polarization (FP) of the sample was measured at excitation/emission wavelength of 635/670 nm and the generated FP values were fitted to a one site binding model using the software GraphPad Prism. […] The FP values were fitted to a one site competition (variable slope) model in GraphPad prism. The resulting IC50 values were converted to Ki values as described previously by Nikolovska-Coleska et al., Anal. Biochem., 2004, 332, 261).

[2] = isolated enzyme plasmin, read-out: T1/2
[3] = dimeric ligands fused to L-TAT and L-Arg9, n ≥ 3 (Table 5, FIG. 2)
[4] = NPEG4-(KETLV)2 fused to polyArg CPP-tags, n ≥ 3 (Table 7, FIG. 4)

T1 sequence (P00747 581-810 limits assumed, species assumed): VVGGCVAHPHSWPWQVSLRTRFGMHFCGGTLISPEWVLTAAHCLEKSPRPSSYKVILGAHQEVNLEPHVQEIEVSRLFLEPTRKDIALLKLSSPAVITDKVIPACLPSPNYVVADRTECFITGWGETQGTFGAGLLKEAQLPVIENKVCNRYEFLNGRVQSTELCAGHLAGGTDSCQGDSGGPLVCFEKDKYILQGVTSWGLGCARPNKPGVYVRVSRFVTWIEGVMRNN
T1 sequence (P00747 97-580 partner limits assumed, species assumed): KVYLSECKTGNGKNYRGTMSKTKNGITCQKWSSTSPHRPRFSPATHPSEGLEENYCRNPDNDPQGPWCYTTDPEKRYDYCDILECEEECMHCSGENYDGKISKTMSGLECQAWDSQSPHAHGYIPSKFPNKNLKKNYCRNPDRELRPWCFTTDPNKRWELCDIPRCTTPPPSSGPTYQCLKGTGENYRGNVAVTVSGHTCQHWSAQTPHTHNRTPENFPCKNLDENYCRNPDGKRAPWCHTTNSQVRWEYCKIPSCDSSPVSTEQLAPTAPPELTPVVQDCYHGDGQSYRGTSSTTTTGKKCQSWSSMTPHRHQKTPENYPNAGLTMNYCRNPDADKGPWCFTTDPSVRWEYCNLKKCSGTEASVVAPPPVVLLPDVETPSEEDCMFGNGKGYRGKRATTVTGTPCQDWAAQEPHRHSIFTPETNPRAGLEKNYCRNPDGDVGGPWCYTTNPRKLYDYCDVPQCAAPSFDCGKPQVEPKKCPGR

Structure (SMILES): CC(=O)N[C@@H](Cc1ccc(O)cc1)C(=O)NCC(=O)N[C@@H](CCCNC(=N)N)C(=O)N[C@@H](CCCCN)C(=O)N[C@@H](CCCCN)C(=O)N[C@@H](CCCNC(=N)N)C(=O)N[C@@H](CCCNC(=N)N)C(=O)N[C@@H](CCC(N)=O)C(=O)N[C@@H](CCCNC(=N)N)C(=O)N[C@@H](CCCNC(=N)N)C(=O)N[C@@H](CCCNC(=N)N)C(=O)N(CCOCCOCCC(=O)N[C@@H](CCCCN)C(=O)N[C@@H](CCC(=O)O)C(=O)N[C@H](C(=O)N[C@H](C(=O)N[C@H](C(=O)O)C(C)C)[C@@H](C)O)[C@@H](C)O)CCOCCOCCC(=O)N[C@@H](CCCCN)C(=O)N[C@@H](CCC(=O)O)C(=O)N[C@H](C(=O)N[C@H](C(=O)N[C@H](C(=O)O)C(C)C)[C@@H](C)O)[C@@H](C)O [Compound 13]
half-life (plasmin; [2]): 9.5 ± 3 h | Ki (PDZ1-2 of PSD-95; [3]): 6.5 ± 0.7 nM

Structure (SMILES): CC(=O)N[C@@H](Cc1ccc(O)cc1)C(=O)NCC(=O)N[C@@H](CCCNC(=N)N)C(=O)N[C@@H](CCCCN)C(=O)N[C@@H](CCCCN)C(=O)N[C@@H](CCCNC(=N)N)C(=O)N[C@@H](CCCNC(=N)N)C(=O)N[C@@H](CCC(N)=O)C(=O)N[C@@H](CCCNC(=N)N)C(=O)N[C@@H](CCCNC(=N)N)C(=O)N[C@@H](CCCNC(=N)N)C(=O)N(CCOCCOCCC(=O)N[C@@H](CCCCN)C(=O)N[C@@H](CCC(=O)O)C(=O)N[C@H](C(=O)N[C@H](C(=O)N[C@H](C(=O)O)C(C)C)C(C)C)[C@@H](C)O)CCOCCOCCC(=O)N[C@@H](CCCCN)C(=O)N[C@@H](CCC(=O)O)C(=O)N[C@H](C(=O)N[C@H](C(=O)N[C@H](C(=O)O)C(C)C)C(C)C)[C@@H](C)O [Compound 15]
half-life (plasmin; [2]): 6.42 ± 2.17 h | Ki (PDZ1-2 of PSD-95; [3]): 2.1 ± 0.2 nM

Structure (SMILES): CC(=O)N[C@@H](Cc1ccc(O)cc1)C(=O)NCC(=O)N[C@@H](CCCNC(=N)N)C(=O)N[C@@H](CCCCN)C(=O)N[C@@H](CCCCN)C(=O)N[C@@H](CCCNC(=N)N)C(=O)N[C@@H](CCCNC(=N)N)C(=O)N[C@@H](CCC(N)=O)C(=O)N[C@@H](CCCNC(=N)N)C(=O)N[C@@H](CCCNC(=N)N)C(=O)N[C@@H](CCCNC(=N)N)C(=O)N(CCOCCOCCC(=O)N[C@@H](CCCCN)C(=O)N[C@@H](CCC(=O)O)C(=O)N[C@H](C(=O)N[C@@H](CCCNC(=N)N)C(=O)N[C@H](C(=O)O)C(C)C)[C@@H](C)O)CCOCCOCCC(=O)N[C@@H](CCCCN)C(=O)N[C@@H](CCC(=O)O)C(=O)N[C@H](C(=O)N[C@@H](CCCNC(=N)N)C(=O)N[C@H](C(=O)O)C(C)C)[C@@H](C)O [Compound 17]
half-life (plasmin; [2]): 6.42 ± 2.17 h | Ki (PDZ1-2 of PSD-95; [3]): 6.6 ± 0.6 nM

Structure (SMILES): CC[C@H](C)[C@H](NC(=O)CCOCCOCCN(CCOCCOCCC(=O)N[C@H](C(=O)N[C@@H](CO)C(=O)N[C@H](C(=O)N[C@@H](CC(=O)O)C(=O)N[C@H](C(=O)O)C(C)C)[C@@H](C)O)[C@@H](C)CC)C(=O)[C@H](CCCNC(=N)N)NC(=O)[C@H](CCCNC(=N)N)NC(=O)[C@H](CCCNC(=N)N)NC(=O)[C@H](CCC(N)=O)NC(=O)[C@H](CCCNC(=N)N)NC(=O)[C@H](CCCNC(=N)N)NC(=O)[C@H](CCCCN)NC(=O)[C@H](CCCCN)NC(=O)[C@H](CCCNC(=N)N)NC(=O)CNC(=O)[C@H](Cc1ccc(O)cc1)NC(C)=O)C(=O)N[C@@H](CO)C(=O)N[C@H](C(=O)N[C@@H](CC(=O)O)C(=O)N[C@H](C(=O)O)C(C)C)[C@@H](C)O [Compound 19]
half-life (plasmin; [2]): 8.9 ± 0.667 h | Ki (PDZ1-2 of PSD-95; [3]): 36.1 ± 1.8 nM

Structure (SMILES): CC(=O)N[C@@H](Cc1ccc(O)cc1)C(=O)NCC(=O)N[C@@H](CCCNC(=N)N)C(=O)N[C@@H](CCCCN)C(=O)N[C@@H](CCCCN)C(=O)N[C@@H](CCCNC(=N)N)C(=O)N[C@@H](CCCNC(=N)N)C(=O)N[C@@H](CCC(N)=O)C(=O)N[C@@H](CCCNC(=N)N)C(=O)N[C@@H](CCCNC(=N)N)C(=O)N[C@@H](CCCNC(=N)N)C(=O)N(CCOCCOCCC(=O)N[C@H](C(=O)N[C@@H](CCC(=O)O)C(=O)N[C@H](C(=O)N[C@H](C(=O)N[C@H](C(=O)O)C(C)C)C(C)C)[C@@H](C)O)C(C)C)CCOCCOCCC(=O)N[C@H](C(=O)N[C@@H](CCC(=O)O)C(=O)N[C@H](C(=O)N[C@H](C(=O)N[C@H](C(=O)O)C(C)C)C(C)C)[C@@H](C)O)C(C)C [Compound 21]
half-life (plasmin; [2]): 8.87 ± 0.683 h | Ki (PDZ1-2 of PSD-95; [3]): 15.8 ± 1.6 nM

Structure (SMILES): CC(=O)N[C@@H](CCCNC(=N)N)C(=O)N[C@@H](CCCNC(=N)N)C(=O)N[C@@H](CCCNC(=N)N)C(=O)N[C@@H](CCCNC(=N)N)C(=O)N(CCOCCOCCC(=O)N[C@@H](CCCCN)C(=O)N[C@@H](CCC(=O)O)C(=O)N[C@H](C(=O)N[C@@H](CC(C)C)C(=O)N[C@H](C(=O)O)C(C)C)[C@@H](C)O)CCOCCOCCC(=O)N[C@@H](CCCCN)C(=O)N[C@@H](CCC(=O)O)C(=O)N[C@H](C(=O)N[C@@H](CC(C)C)C(=O)N[C@H](C(=O)O)C(C)C)[C@@H](C)O [Compound 73]
Ki (PDZ1-2 of PSD-95; [4]): 11.1 ± 0.9 nM | half-life at 100 μM [1]: 15.2 ± 3.6 h

Now from value to compound:

half-life at 100 μM (plasmin; plasmin (5 μg/mL) in PBS, read-out: T1/2): 9.05 ± 1 h | T1/2 [1]: 24 ± 0 h
Structure (SMILES): CC[C@H](C)[C@H](NC(=O)CCOCCOCCN(CCOCCOCCC(=O)N[C@H](C(=O)N[C@@H](CCC(=O)O)C(=O)N[C@H](C(=O)N[C@@H](CC(=O)O)C(=O)N[C@H](C(=O)O)C(C)C)[C@@H](C)O)[C@@H](C)CC)C(=O)[C@H](CCCNC(=N)N)NC(=O)[C@H](CCCNC(=N)N)NC(=O)[C@H](CCCNC(=N)N)NC(=O)[C@H](CCC(N)=O)NC(=O)[C@H](CCCNC(=N)N)NC(=O)[C@H](CCCNC(=N)N)NC(=O)[C@H](CCCCN)NC(=O)[C@H](CCCCN)NC(=O)[C@H](CCCNC(=N)N)NC(=O)CNC(=O)[C@@H](N)Cc1ccc(O)cc1)C(=O)N[C@@H](CCC(=O)O)C(=O)N[C@H](C(=O)N[C@@H](CC(=O)O)C(=O)N[C@H](C(=O)O)C(C)C)[C@@H](C)O [Compound 8, L-TAT-NPEG4(IETDV)2, reference compound]

half-life at 100 μM (plasmin; isolated enzyme plasmin): 43.6 ± 4.6 h | T1/2 [1]: 24 ± 0 h
Structure (SMILES): CC(=O)N[C@@H](CCCNC(=N)N)C(=O)N[C@@H](CCCNC(=N)N)C(=O)N[C@@H](CCCNC(=N)N)C(=O)N[C@@H](CCCNC(=N)N)C(=O)N[C@@H](CCCNC(=N)N)C(=O)N[C@@H](CCCNC(=N)N)C(=O)N[C@@H](CCCNC(=N)N)C(=O)N[C@@H](CCCNC(=N)N)C(=O)N[C@@H](CCCNC(=N)N)C(=O)N(CCOCCOCCC(=O)N[C@@H](CCCCN)C(=O)N[C@@H](CCC(=O)O)C(=O)N[C@H](C(=O)N[C@@H](CC(C)C)C(=O)N[C@H](C(=O)O)C(C)C)[C@@H](C)O)CCOCCOCCC(=O)N[C@@H](CCCCN)C(=O)N[C@@H](CCC(=O)O)C(=O)N[C@H](C(=O)N[C@@H](CC(C)C)C(=O)N[C@H](C(=O)O)C(C)C)[C@@H](C)O [Compound 23]

half-life at 100 μM (plasmin): 24.9 ± 1.9 h | half-life at 100 μM (plasmin; isolated enzyme plasmin): 24.9 ± 1.9 h | T1/2 [1]: 24 ± 0 h
Structure (SMILES): CC[C@H](C)[C@H](NC(=O)CCOCCOCCN(CCOCCOCCC(=O)N[C@H](C(=O)N[C@@H](CCC(=O)O)C(=O)N[C@H](C(=O)N[C@@H](CC(=O)O)C(=O)N[C@H](C(=O)O)C(C)C)[C@@H](C)O)[C@@H](C)CC)C(=O)[C@H](CCCNC(=N)N)NC(=O)[C@H](CCCNC(=N)N)NC(=O)[C@H](CCCNC(=N)N)NC(=O)[C@H](CCCNC(=N)N)NC(=O)[C@H](CCCNC(=N)N)NC(=O)[C@H](CCCNC(=N)N)NC(=O)[C@H](CCCNC(=N)N)NC(=O)[C@H](CCCNC(=N)N)NC(=O)[C@H](CCCNC(=N)N)NC(C)=O)C(=O)N[C@@H](CCC(=O)O)C(=O)N[C@H](C(=O)N[C@@H](CC(=O)O)C(=O)N[C@H](C(=O)O)C(C)C)[C@@H](C)O [Compound 35]

T1/2 [1]: 24 ± 0 h
Structure (SMILES): CC(=O)N[C@@H](CCCNC(=N)N)C(=O)N[C@@H](CCCNC(=N)N)C(=O)N[C@@H](CCCNC(=N)N)C(=O)N[C@@H](CCCNC(=N)N)C(=O)N[C@@H](CCCNC(=N)N)C(=O)N[C@@H](CCCNC(=N)N)C(=O)N[C@@H](CCCNC(=N)N)C(=O)N(CCOCCOCCC(=O)N[C@@H](CCCCN)C(=O)N[C@@H](CCC(=O)O)C(=O)N[C@H](C(=O)N[C@@H](CC(C)C)C(=O)N[C@H](C(=O)O)C(C)C)[C@@H](C)O)CCOCCOCCC(=O)N[C@@H](CCCCN)C(=O)N[C@@H](CCC(=O)O)C(=O)N[C@H](C(=O)N[C@@H](CC(C)C)C(=O)N[C@H](C(=O)O)C(C)C)[C@@H](C)O [Compound 67]

Ki (PDZ1-2 of PSD-95; [4]): 8.6 ± 0.3 nM | T1/2 [1]: 24 ± 0 h
Structure (SMILES): CC(=O)N[C@@H](CCCNC(=N)N)C(=O)N[C@@H](CCCNC(=N)N)C(=O)N[C@@H](CCCNC(=N)N)C(=O)N[C@@H](CCCNC(=N)N)C(=O)N[C@@H](CCCNC(=N)N)C(=O)N[C@@H](CCCNC(=N)N)C(=O)N(CCOCCOCCC(=O)N[C@@H](CCCCN)C(=O)N[C@@H](CCC(=O)O)C(=O)N[C@H](C(=O)N[C@@H](CC(C)C)C(=O)N[C@H](C(=O)O)C(C)C)[C@@H](C)O)CCOCCOCCC(=O)N[C@@H](CCCCN)C(=O)N[C@@H](CCC(=O)O)C(=O)N[C@H](C(=O)N[C@@H](CC(C)C)C(=O)N[C@H](C(=O)O)C(C)C)[C@@H](C)O [Compound 69]

half-life at 100 μM [1]: 21.1 ± 2.3 h
Structure (SMILES): CC(=O)N[C@@H](CCCNC(=N)N)C(=O)N[C@@H](CCCNC(=N)N)C(=O)N[C@@H](CCCNC(=N)N)C(=O)N[C@@H](CCCNC(=N)N)C(=O)N[C@@H](CCCNC(=N)N)C(=O)N(CCOCCOCCC(=O)N[C@@H](CCCCN)C(=O)N[C@@H](CCC(=O)O)C(=O)N[C@H](C(=O)N[C@@H](CC(C)C)C(=O)N[C@H](C(=O)O)C(C)C)[C@@H](C)O)CCOCCOCCC(=O)N[C@@H](CCCCN)C(=O)N[C@@H](CCC(=O)O)C(=O)N[C@H](C(=O)N[C@@H](CC(C)C)C(=O)N[C@H](C(=O)O)C(C)C)[C@@H](C)O [Compound 71]
